US20120295935A1, “MIXED AMINAL PHARMACEUTICAL COMPOSITIONS AND USES THEREOF” (priority 2010, published 2012)

What was measured:
[1] = system: female SD rats; experiment: Rat femur healing of surgical wounds (micro CT); format: in vivo; design: wound size decreased vs control / reduction in wound size / cortical thickness increased vs control: concentration or dose not given beside the values; settings: for cortical thickness / cortical thickness increased vs control: femur anterior hole; for cortical thickness increase: femur posterior hole; for reduction in wound size: femur posterior holes
Protocol: Rat femur—healing of surgical wounds. A surgical hole with ˜2.0 mm in diameter was generated in the left and right femurs of twenty female SD rats (˜8 weeks, body weight ˜180 g). The holes were drilled through the femur from the anterior surface to the opposite cortex (posterior surface) in the middle of the femur. During the first 5 days, 100 μl of salubrinal solution at dosage of 0.025 mg/kg was injected subcutaneously to the left limb and a PBS solution (vehicle control) in the right limb. The injection site was closed to the anterior surgical hole. Rats were sacrificed on days 10 or 20 after surgery, and the axial and transverse hole sizes as well as cortical thickness (1.5 mm proximal and distal to the center of the hole) were determined with micro CT. […] Regarding the anterior holes, the size of the wounds 10 days after surgery was smaller in the salubrinal treated group by 10.8% (1.905±0.018 mm in control and 1.700±0.021 mm in salubrinal; p<0.001). The size in 20 day samples was further decreased by 18.0% (1.812±0.017 mm in control and 1.486±0.026 mm in salubrinal; p<0.001). […] Note that the reduction in the wound size on day 20 was more significant than those on day 10 in both the anterior and posterior holes (both p<0.001) (FIG. 15B).

[2] = system: MC3T3 cells; experiment: Cell proliferation and death; format: cell-based
[3] = system: C57/BL/6 female mice; experiment: Mouse tibia bone formation, ankle loading plus local salubrinal; format: in vivo
Protocol: Mouse tibia-bone formation: Twenty C57/BL/6 female mice (˜8 weeks, body weight ˜18 g) were employed to examine the combined effects of ankle loading and local administration of salubrinal to the tibia (Zhang P, et al., Salubrinal stimulates anabolic responses in mouse femora, 55th Ann Meeting ORS (2009)). Local administration was targeted into a bone marrow cavity from the proximal tibia. A total volume of 20 μl PBS was injected to the left hindlimb with or without 0.025 mg/kg (100 μM) salubrinal (Calbiochem) using a micro-syringe with a 0.5-inch #26-gauge needle (Worsham D N, et al., In vivo gene transfer into adult stem cells in unconditioned mice by in situ delivery of a lentiviral vector, Mol. Ther. 14:514-24 (2006); Zhu Y, et al., eIF-2a protects brainstem motoneurons in a murine model of sleep apnea, J. Neurosci. 28:2168-78 (2008)). In examination of the combined effects of mechanical loading and salubrinal administration, ankle loading was given for 5 consecutive days after administration of salubrinal on each day. The mouse was placed in an anesthetic induction chamber to cause sedation and then mask-anesthetized using 1.5% isoflurane. With a custom-made piezoelectric mechanical loader, loads were applied to the left ankle for 5 min/day in the lateral-medial direction. The loading frequency was 5 Hz, and the peak-to-peak force was 0.5 N (FIG. 12). The right hindlimb was used as a sham-loaded control (Zhang P, et al., Joint loading-driven bone formation and signaling pathways predicted from genome-wide expression profiles, Bone 44:989-998 (2009)).

[4] = system: brainstem motoneurons in mice; settings: hypoxia and reoxygenation events; cited from earlier work
[5] = ankle loading and salubrinal injection
[6] = tibia, 0.025 mg/kg (100 μM) plus ankle loading, 5 days

## O=C(/C=C/c1ccccc1)NC(NC(=S)Nc1cccc2cccnc12)C(Cl)(Cl)Cl (stereo not shown) [salubrinal]
[1]; day 10
  cortical thickness: 0.476±0.012 mm
  cortical thickness increased vs control: 11.0%
[1]; day 20
  cortical thickness: 0.551±0.014 mm
  cortical thickness increased vs control: 25.7%
[1]; femur anterior holes, 10 days
  size of the wounds: 1.700±0.021 mm
[1]; femur anterior holes, 10 days, 0.025 mg/kg s.c. first 5 days
  wound size smaller vs control: 10.8%
[1]; femur anterior holes, 20 days
  size of the wounds: 1.486±0.026 mm
  wound size decreased vs control: 18.0%
[1]; postoperative 10 days
  cortical thickness increase: 13.8%
  reduction in wound size: 4.1%
[1]; postoperative 20 days
  cortical thickness increase: 21.3%
  reduction in wound size: 11.1%
[2]; 50 μM, no statistical difference (p>0.05)
  cell death: reduced cell death
[2]; 10 or 50 μM for 24 h
  cell proliferation or death: did not alter
[3]; [5]
  relative increase in BMC vs ankle loading alone: 1.5 fold
  relative increase in BMD vs ankle loading alone: 2.3 fold
[3]; [6]
  BMC: 0.0154 ± 0.0004 g
  BMD: 0.0443±0.0011 g/cm^2
[4]
  motoneuronal injury: suppressed
